One block for each compound: values may come before it.
Columns and labels:
NET [1] = assay: PET imaging in non-human primates with and without desipramine blockade; type: in vivo, rhesus macaques; settings: NHPs, n = 2; specificity proven by desipramine 1 mg/kg i.v. 10 min before tracer
Text: The experimental protocols were approved by the Animal Ethics Committee of the National Cerebral and Cardiovascular Center, Research Institute, Osaka, Japan (approval number 18019) and conducted in strict accordance with the Guide for the Care and Use of Laboratory Animals published by the US National Institutes of Health and the ARRIVE guidelines. Anesthesia was induced in male Wistar rats (n = 3–6 for each radiotracer, weighing 200–250 g on average, Charles River Laboratories, Research Models and Services, Germany GmbH, Sulzfeld, Germany) by using 5% isoflurane and maintained during the whole experiment with 2% isoflurane. […] After a tracheal cannula was inserted, 1.5% sevoflurane (SEVOFLURANE Inhalation Solution, Pfizer Japan Inc., Tokyo, Japan) vaporized with 100% oxygen was inhaled, and the tidal volume and respiratory rate of the ventilator were monitored and maintained in the normal range throughout the imaging sessions with an anesthesia workstation (Apollo®, Drägerwerk AG & Co. KGaA, Lübeck, Germany).
Preliminary PET imaging of [^18F]AF78(F) in rodents (n = 2) and NHPs (n = 2) was obtained according to a previously described protocol. […] Following weight and decay correction of the tissue counts, the heart-to-blood (H/B) ratios were calculated. […]

[2] = PET/CT imaging in healthy rats; type: in vivo; settings: n = 2, 10-20 MBq via tail vein
Protocol: (§1) Preliminary PET imaging of [^18F]AF78(F) in rodents (n = 2) and NHPs (n = 2) was obtained according to a previously described protocol. For the rat biodistribution studies (n = 3–6 for each tracer), radiotracers (1–2 MBq) were administered via the tail vein. Ten minutes after radiotracer administration, the animals were euthanized. The organs of interest were harvested for tissue counting with a γ-counter (2480 Automatic Gamma Counter WIZARD^2, PerkinElmer LAS GmbH, Rodgau, Germany). Following weight and decay correction of the tissue counts, the heart-to-blood (H/B) ratios were calculated. A detailed experimental description can be found in the Supplementary Material. […]
days. IC50 values were determined using nonlinear regression log(inhibitor) vs. normalized response in GraphPad Prism 8.4.3.
PET Imaging and Biodistribution Study
PET imaging of [18F]AF78(F) in rodents (n = 2) was obtained using a dedicated small animal PET system (microPET Focus 120, Siemens, Germany). […]
initiated with acquisition in list-mode format. […] Following weight and decay correction of the tissue counts, the heart-to-blood ratios were calculated. […]
injected 10 min before tracer administration, after which the PET scan started immediately. […] The obtained PET images were analyzed with the public domain tool AMIDE imaging software (A Medical Imaging Data Examiner, version 1.01).

[3] = Rat biodistribution study, heart-to-blood ratio of fluorine-18-labeled tracers; type: in vivo; settings: male Wistar rats, 10 min after tail vein administration of fluorine-18-labeled tracer (1-2 MBq), n = 3-6
Text: The experimental protocols were approved by the Animal Ethics Committee of the National Cerebral and Cardiovascular Center, Research Institute, Osaka, Japan (approval number 18019) and conducted in strict accordance with the Guide for the Care and Use of Laboratory Animals published by the US National Institutes of Health and the ARRIVE guidelines. Anesthesia was induced in male Wistar rats (n = 3–6 for each radiotracer, weighing 200–250 g on average, Charles River Laboratories, Research Models and Services, Germany GmbH, Sulzfeld, Germany) by using 5% isoflurane and maintained during the whole experiment with 2% isoflurane. Large animal PET imaging was performed on rhesus macaques (n = 2, weighing 3.9–4.2 kg, Primate Research Institute Kyoto University, Aichi, Japan). The induction of anesthesia in non-human primates (NHPs) was conducted by intramuscular injection of ketamine (1.5 mg/kg) and xylazine (0.6 mg/kg) to allow animal preparation and handling. After a tracheal cannula was inserted, 1.5% sevoflurane (SEVOFLURANE Inhalation Solution, Pfizer Japan Inc., Tokyo, Japan) vaporized with 100% oxygen was inhaled, and the tidal volume and respiratory rate of the ventilator were monitored and maintained in the normal range throughout the imaging sessions with an anesthesia workstation (Apollo®, Drägerwerk AG & Co. KGaA, Lübeck, Germany).
as §1
PET Imaging and Biodistribution Study […]
Barbara, CA, US). For the rat biodistribution studies, radiotracers (1–2 MBq) were administered via the tail vein. Ten minutes after radiotracer administration, the animals were euthanized. The organs of interest were harvested for tissue counting with a γ-counter (2480 Automatic Gamma Counter WIZARD2, PerkinElmer, Rodgau, Germany). Following weight and decay correction of the tissue counts, the heart-to-blood ratios were calculated. NHPs (n = 2) were anesthetized during the imaging study and studied on a clinical PET scanner (PCA-2000A, Toshiba Medical Systems Corporation, Tochigi, Japan). After a 5 min transmission scan and an intravenous injection of the […]
and 300 s × 11) was started. […]

NET [4] = biological target: T1, NET (Homo sapiens, UniProt P23975); design: Human neuroblastoma cell line SK-N-SH from metastatic bone marrow stably expressing NET; host or cells: SK-N-SH human neuroblastoma cells; method as in PMID 23306137; settings: NE-NET; read-out: Michaelis constant Km; cited from earlier work
NET [5] = biological target: T1, NET; assay: Competitive cellular uptake assay against [3H]NE uptake in SK-N-SH cells
Text: It should be noted that the NET affinities of the tested compounds are expressed as IC50 in the current manuscript instead of the dissociation constant Kd. First, because all the tested compounds are substrates of NET that can be transported, they share the same binding site. […] Therefore, the IC50 value in the current study is considered equal to Kd without additional correction.
Competitive Cellular Uptake Studies
were cultivated according to the instructions from the supplier (Sigma-Aldrich Chemie GmbH,
Munich, Germany). One day before the competitive assay, the cells were seeded in 24-well plates
at a density of 1 × 10^5 cells/well and incubated in 0.5 mL of Eagle’s minimum essential medium
(EMEM) at 37 °C overnight. The medium was removed, and the cells were washed with 0.5 mL of
Dulbecco’s modified Eagle’s medium (DMEM) with low glucose containing 0.1% bovine serum
albumin (BSA). After washing, DMEM/0.1% BSA (300 µL) was added along with 50 µL of pargyline
presence of pyrogallol (20 µM final concentration, catechol-O-methyl transferase inhibitor) [1] and
pargyline (100 µM final concentration, monoamine oxidase inhibitor) [2], 50 µL of working solution
GBq/mmol, NET678250UC, PerkinElmer LAS GmbH, Germany) in DMEM/0.1% BSA together with
50 µL of the test compounds (desipramine, MIBG, HED and cold re ferences, each at different
incubation volume. The addition of the inhibitors of both enzymes involved in the natural
time. The plates were incubated at 37°C for 60 min. The cells were then washed with ice-cold PBS
(2 × 0.5 mL) followed by the addition of NaOH solution (0.1 N, 500 μL) and collection of the cell
lysates. Cell lysates (140 µL) were mixed with 1.8 mL of scintillation cocktail (Hionic-Fluor,
PerkinElmer, Rodgau, Germany) and radioactivity was measured in a liquid scintillation analyzer
All experimental data are presented as mean
± SD, with individual numbers measured in triplicate in experiment performed on 2–3 separate

T1 sequence (P23975 whole entry): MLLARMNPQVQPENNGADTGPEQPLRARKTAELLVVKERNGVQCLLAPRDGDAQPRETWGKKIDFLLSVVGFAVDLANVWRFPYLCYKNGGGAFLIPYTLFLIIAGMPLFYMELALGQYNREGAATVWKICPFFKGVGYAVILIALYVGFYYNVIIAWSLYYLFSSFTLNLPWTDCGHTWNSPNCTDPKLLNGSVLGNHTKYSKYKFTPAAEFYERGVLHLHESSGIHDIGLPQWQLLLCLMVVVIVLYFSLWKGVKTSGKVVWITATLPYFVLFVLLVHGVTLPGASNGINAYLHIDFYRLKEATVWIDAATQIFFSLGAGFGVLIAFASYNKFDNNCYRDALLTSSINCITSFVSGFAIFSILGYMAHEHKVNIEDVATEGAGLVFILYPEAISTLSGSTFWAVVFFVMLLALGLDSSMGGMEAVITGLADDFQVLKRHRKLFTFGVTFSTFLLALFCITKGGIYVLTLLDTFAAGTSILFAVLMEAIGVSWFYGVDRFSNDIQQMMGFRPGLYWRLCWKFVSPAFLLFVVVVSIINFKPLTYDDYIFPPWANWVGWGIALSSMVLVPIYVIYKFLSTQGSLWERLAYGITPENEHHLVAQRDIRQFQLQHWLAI

Structure (SMILES): N=C(N)NCCc1ccc(OCCCF)c(F)c1 [AF78(F)]
uptake in the heart (PET) (NET [1]): distinct NET-mediated uptake in the heart
systemic distribution of the radiotracer (PET/CT) [2]: homogenous distribution throughout the left ventricular wall
heart-to-blood (H/B) ratio [3]: 13.2 ± 1.2

Structure (SMILES): NC[C@H](O)c1ccc(O)c(O)c1 [NE, norepinephrine]
Km (NET [4]): 0.28 ± 0.03 µM

Structure (SMILES): N=C(N)NCCc1ccc(OCCCF)c(I)c1 [AF78(I)]
IC50 (NET [5]): 6.51 ± 3.32 µM
fold less potent than AF78(F) (NET [5]; ratio of NET affinities in the competitive cellular uptake assay): 15 fold
heart-to-blood (H/B) ratio [3]: 5.9 ± 0.4

IC50 (NET [5]): 4.17 ± 0.92 µM
Structure (SMILES): N=C(N)NCCc1ccc(OCCCF)cc1 [AF78(H)]

Structure (SMILES): N=C(N)NCCc1ccc(OCCCF)c(Cl)c1 [AF78(Cl)]
IC50 (NET [5]): 0.94 ± 0.28 µM
heart-to-blood (H/B) ratio [3]: 10.4 ± 0.4

IC50 (NET [5]): 22.7 ± 3.58 µM
Structure (SMILES): N=C(N)NCCc1ccc(OCCCF)c(O)c1 [AF78(OH)]

Structure (SMILES): N=C(N)NCCc1ccc(OCCCF)c(Br)c1 [AF78(Br)]
IC50 (NET [5]): 3.32 ± 0.72 µM
heart-to-blood (H/B) ratio [3]: 8.7 ± 1.4

Reference: PMC9963373, “Rationalizing the Binding Modes of PET Radiotracers Targeting the Norepinephrine Transporter” (Pharmaceutics, 2023)
